We go through 13 compounds from patent US10975037B2 (priority 2018, dated 2021).

Counter-ions that a name gives are not always drawn.

Test [1] deals with human RORγt ligand binding domain (RORγt LBD) (Homo sapiens (Human), UniProt P51449). The experiment in a line: RORγt ThermoFluor® assay (thermal shift binding). The following applies: ThermoFluor® Assay, Kd. Here is the method: This approach is applicable to a wide variety of systems, and rigorous in theoretical interpretation through quantitation of equilibrium binding constants (KD).
human RORγt ligand binding domain (RORγt LBD), sequence (P51449 other isoform, or with tags, fused parts or gaps): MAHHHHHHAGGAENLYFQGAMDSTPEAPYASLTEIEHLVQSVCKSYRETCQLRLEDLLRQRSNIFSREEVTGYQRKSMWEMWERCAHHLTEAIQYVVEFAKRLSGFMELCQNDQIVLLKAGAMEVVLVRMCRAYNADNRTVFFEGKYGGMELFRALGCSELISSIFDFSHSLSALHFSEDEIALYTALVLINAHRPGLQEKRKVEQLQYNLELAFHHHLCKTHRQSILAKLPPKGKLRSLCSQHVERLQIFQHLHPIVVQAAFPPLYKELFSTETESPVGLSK
The shift in the melting point described as a ΔTm is proportional to the concentration and affinity of the ligand.
RORγt ThermoFluor® Assay Construct
Reference wells contained RORγt without compounds, and the assay conditions were as follows: • 0.065 mg/mL RORγt • 60 μM 1,8-ANS • 100 mM Hepes, pH 7.0 • 10 mM NaCl • 2.5 mM GSH • 0.002% Tween-20
Project compounds were arranged in a pre-dosed mother plate (Greiner Bio-one) wherein compounds are serially diluted in 100% DMSO by 1:2 from a high concentration of 10 mM over 12 columns within a series (column 12 is a reference well containing DMSO, no compound). The compounds were robotically dispensed directly into assay plates (1×=46 nL) using a Hummingbird capillary liquid handling instrument (Digilab). Following compound dispense, protein and dye in buffer was added to achieve the final assay volume of 3 μL, followed by 1 μL of silicone oil.
(DSF heats the sample and reads unfolding from a dye or from intrinsic fluorescence.)

The target in another test is full-length human RORγt (Homo sapiens (Human), UniProt P51449). Briefly: RORγt (full-length human) reporter assay, conditions A or B, HEK293T cells. Conditions: for IC50: RORγt (FL) Reporter Assay A or B, IC50, HEK293T cells; for inhibition at 0.67 µM: 0.67 μM compound concentration (footnote ****); for inhibition at […]: 0.33 μM compound concentration (footnote *****); for inhibition at 2 µM: 2 μM compound concentration. The class given is cell-based. As for the experimental part:
RORγt (Full-Length Human) Reporter Assay:
(§1) HEK293T cells were plated at 35,000 per well in 96-well plate in medium of DMEM with 10% FBS. […] After overnight (16 to 20 hours) incubation, media were removed and cells were lysed with 50 L Glo Lysis Buffer (Promega) for 10-15 minutes followed by 10 minute incubation with 50 μL Dual Glo reagent (Promega) at room temperature. Firefly luciferase luminescence was measured using a BMG Pherastar plate reader. To each well, 50 μL Stop and Glo reagent was added and incubated for 10 minutes at room temperature. Renilla luminescence was measured using a BMG Pherastar plate reader. To calculate the effect of compounds on RORγt activity, firefly values were normalized against values of DMSO only and values of reference compound at saturating concentration, then further normalized against Renilla signals. IC50s were generated by plotting final Renilla normalized data against compound concentration and percent inhibition was calculated against DMSO control.
as §1, with “at 8750 cells” for “at 35,000”, “in 384-well” for “in 96-well”, “with 20” for “with 50”, “well, 20” for “well, 50”

Setting [2] is: HEK-293T, read-out: RORγt (FL) Reporter Assay A or B, % inhibition.

As a reminder, the Kd is a measure of binding affinity in units of concentration. The term inhibition denotes the relative decrease from the control value, in per cent. Broadly, the IC50 is the concentration needed to halve the response being measured. Read a high IC50 as weaker potency.

full-length human RORγt, sequence (P51449 other isoform, or with tags, fused parts or gaps): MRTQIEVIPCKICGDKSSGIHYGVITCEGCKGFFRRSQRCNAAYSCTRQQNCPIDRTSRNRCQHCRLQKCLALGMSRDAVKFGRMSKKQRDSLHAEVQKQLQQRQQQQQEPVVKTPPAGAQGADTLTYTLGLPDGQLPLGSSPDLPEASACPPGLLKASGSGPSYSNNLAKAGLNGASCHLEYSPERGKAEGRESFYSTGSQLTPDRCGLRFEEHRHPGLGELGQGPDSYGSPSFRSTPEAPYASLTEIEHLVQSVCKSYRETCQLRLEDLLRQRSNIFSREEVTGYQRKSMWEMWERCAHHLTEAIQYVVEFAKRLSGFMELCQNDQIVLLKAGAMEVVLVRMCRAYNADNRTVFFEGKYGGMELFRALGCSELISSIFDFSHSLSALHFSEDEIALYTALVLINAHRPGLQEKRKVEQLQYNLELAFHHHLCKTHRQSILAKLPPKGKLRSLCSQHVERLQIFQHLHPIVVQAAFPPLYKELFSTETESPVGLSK

Regarding `CCn1nc(C(=O)NC[C@]2(O)CC[C@@H](S(C)(=O)=O)C[C@H]2N)c(Cl)c1-c1ccc(CC(C)(C)C(F)(F)F)cc1OC(F)F` (single isomer, unassigned) [Example 6, N-(((1R*,2R*,4R*)-2-Amino-1-hydroxy-4-(methylsulfonyl)cyclohexyl)methyl)-4-chloro-5-(2-(difluoromethoxy)-4-(3,3,3-trifluoro-2,2-dimethylpropyl)phenyl)-1-ethyl-1H-pyrazole-3-carboxamide Hydrobromide], in test [1], the Kd turned out to be 2.4 nM. In addition, at full-length human RORγt (HEK-293T, 3 μM compound concentration (footnote *), read-out: RORγt (FL) Reporter Assay A or B, % inhibition), the inhibition at 3 µM stood at 117%. For the same compound, the IC50 at full-length human RORγt was 29 nM.

With `CCn1nc(C(=O)NC[C@H]2CC[C@H](S(C)(=O)=O)CO2)c(Cl)c1-c1ccc(CC(C)(C)C(F)(F)F)cc1OC(F)F` (single isomer, unassigned) [Example 15, 4-Chloro-5-(2-(difluoromethoxy)-4-(3,3,3-trifluoro-2,2-dimethylpropyl)phenyl)-1-ethyl-N-(((2R*,5S)-5-(methylsulfonyl)tetrahydro-2H-pyran-2-yl)methyl)-1H-pyrazole-3-carboxamide], the Kd in test [1] was determined as 0.13 nM. Moreover, the inhibition at 0.67 µM on full-length human RORγt (setting [2]) was 113%. The compound further came in with an IC50 at full-length human RORγt of 5.4 nM.

Take `CCn1nc(C(=O)NC[C@@H]2CC[C@@H](S(C)(=O)=O)CO2)c(Cl)c1-c1ccc(CC(C)(C)C(F)(F)F)cc1OC(F)F` (single isomer, unassigned) [Example 16, 4-Chloro-5-(2-(difluoromethoxy)-4-(3,3,3-trifluoro-2,2-dimethylpropyl)phenyl)-1-ethyl-N-(((2S*,5R*)-5-(methylsulfonyl)tetrahydro-2H-pyran-2-yl)methyl)-1H-pyrazole-3-carboxamide]: the Kd in test [1] was 0.19 nM. Besides, at full-length human RORγt (setting [2]), the inhibition at 0.67 µM turned out to be 105%. The compound further showed an IC50 on full-length human RORγt of 4.8 nM.

Take `CCn1nc(C(=O)NC[C@H]2CC[C@H](S(C)(=O)=O)C[C@@H]2O)c(Cl)c1-c1ccc(CC(C)(C)C(F)(F)F)cc1OC(F)F` (single isomer, unassigned) [Example 21, 4-Chloro-5-(2-(difluoromethoxy)-4-(3,3,3-trifluoro-2,2-dimethylpropyl)phenyl)-1-ethyl-N-(((1R*,2S*,4S*)-2-hydroxy-4-(methylsulfonyl)cyclohexyl)methyl)-H-pyrazole-3-carboxamide]: in test [1], the Kd came out at 0.37 nM. Moreover, the inhibition at […] at full-length human RORγt (setting [2]) came out at 103%. Moreover, inhibition at full-length human RORγt was half-maximal at 3.6 nM (IC50).

On to `CCn1nc(C(=O)NC[C@@H]2CC[C@@H](S(C)(=O)=O)C[C@H]2O)c(Cl)c1-c1ccc(CC(C)(C)C(F)(F)F)cc1OC(F)F` (single isomer, unassigned) [Example 22, 4-Chloro-5-(2-(difluoromethoxy)-4-(3,3,3-trifluoro-2,2-dimethylpropyl)phenyl)-1-ethyl-N-(((1S*,2R*,4R*)-2-hydroxy-4-(methylsulfonyl)cyclohexyl)methyl)-1H-pyrazole-3-carboxamide], for which the Kd in test [1] turned out to be 0.44 nM. For the same compound, on full-length human RORγt (HEK-293T, 1 μM compound concentration (footnote ***), read-out: RORγt (FL) Reporter Assay A or B, % inhibition), the inhibition at 1 µM stood at 100%. In addition, half-maximal inhibition against full-length human RORγt (IC50) required 4.2 nM.

With `CCCn1nc(C(=O)NC[C@]2(O)CC[C@@H](S(C)(=O)=O)CC2)c(Cl)c1-c1ccc(C[C@H](C)C(F)(F)F)cc1OC` (single isomer, unassigned) [Example 40, 4-Chloro-N-(((1s,4R)-1-hydroxy-4-(methylsulfonyl)cyclohexyl)methyl)-5-(2-methoxy-4-((S*)-3,3,3-trifluoro-2-methylpropyl)phenyl)-1-propyl-1H-pyrazole-3-carboxamide], in test [1], the Kd was 0.71 nM. The inhibition at 2 µM at full-length human RORγt (setting [2]) came to 99%. Further, half-maximal inhibition on full-length human RORγt (IC50) required 13 nM.

In the case of `CCCn1nc(C(=O)NC[C@H]2CC[C@H](S(C)(=O)=O)CC2)c(Cl)c1-c1ccc(C[C@H](C)C(F)(F)F)cc1OC` (single isomer, unassigned) [Example 41, 4-Chloro-5-(2-methoxy-4-((S*)-3,3,3-trifluoro-2-methylpropyl)phenyl)-N-(((1r,4S)-4-(methylsulfonyl)cyclohexyl)methyl)-1-propyl-1H-pyrazole-3-carboxamide], the Kd in test [1] is 0.28 nM. Further, the inhibition at 0.67 µM at full-length human RORγt (setting [2]) stood at 98%. On full-length human RORγt, this compound gave an IC50 of 8 nM.

For `CCCn1nc(C(=O)NC[C@]2(O)CC[C@@H](S(C)(=O)=O)CC2)c(Cl)c1-c1ccc(C[C@@H](C)C(F)(F)F)cc1OC` (single isomer, unassigned) [Example 42, 4-Chloro-N-(((1s,4S)-1-hydroxy-4-(methylsulfonyl)cyclohexyl)methyl)-5-(2-methoxy-4-((R*)-3,3,3-trifluoro-2-methylpropyl)phenyl)-1-propyl-1H-pyrazole-3-carboxamide], the Kd in test [1] was 0.42 nM. Further, at full-length human RORγt (setting [2]), the inhibition at 2 µM was found to be 101%. Besides, the IC50 against full-length human RORγt is 9 nM.

For the compound `CCCn1nc(C(=O)NC[C@H]2CC[C@H](S(C)(=O)=O)CC2)c(Cl)c1-c1ccc(C[C@@H](C)C(F)(F)F)cc1OC` (single isomer, unassigned) [Example 43, 4-Chloro-5-(2-methoxy-4-((R*)-3,3,3-trifluoro-2-methylpropyl)phenyl)-N-(((1r,4R)-4-(methylsulfonyl)cyclohexyl)methyl)-1-propyl-1H-pyrazole-3-carboxamide], in test [1], the Kd worked out at 0.21 nM. Besides, the inhibition at 0.67 µM at full-length human RORγt (setting [2]) was determined as 99%. On full-length human RORγt, this compound registered an IC50 of 7 nM.

Take `CCn1nc(C(=O)NC[C@@]2(O)CC[C@H](S(C)(=O)=O)C[C@@H]2O)c(Cl)c1-c1ccc(CC(C)(C)C(F)(F)F)cc1OC(F)F` (single isomer, unassigned) [Example 47, 4-Chloro-5-(2-(difluoromethoxy)-4-(3,3,3-trifluoro-2,2-dimethylpropyl)phenyl)-N-(((1S*,2S*,4S*)-1,2-dihydroxy-4-(methylsulfonyl)cyclohexyl)methyl)-1-ethyl-1H-pyrazole-3-carboxamide]: the Kd in test [1] amounted to 0.37 nM. Moreover, at full-length human RORγt (setting [2]), the inhibition at 2 µM was determined as 103%. The IC50 at full-length human RORγt was found to be 1.7 nM.

`CCn1nc(C(=O)NC[C@]2(O)CC[C@H](S(C)(=O)=O)C[C@H]2O)c(Cl)c1-c1ccc(CC(C)(C)C(F)(F)F)cc1OC(F)F` (single isomer, unassigned) [Example 48, 4-Chloro-5-(2-(difluoromethoxy)-4-(3,3,3-trifluoro-2,2-dimethylpropyl)phenyl)-N-(((1R*,2R*4S*)-1,2-dihydroxy-4-(methylsulfonyl)cyclohexyl)methyl)-1-ethyl-1H-pyrazole-3-carboxamide]: in test [1], the dissociation constant Kd was found to be 31 nM. For the same compound, the inhibition at 2 µM on full-length human RORγt (setting [2]) stood at 95%. On full-length human RORγt, this compound displayed an IC50 of 61 nM.

Take `CCn1nc(C(=O)NC[C@@]2(O)CC[C@@H](S(C)(=O)=O)C[C@@H]2O)c(Cl)c1-c1ccc(CC(C)(C)C(F)(F)F)cc1OC(F)F` (single isomer, unassigned) [Example 49, 4-Chloro-5-(2-(difluoromethoxy)-4-(3,3,3-trifluoro-2,2-dimethylpropyl)phenyl)-N-(((1S*,2S*,4R*)-1,2-dihydroxy-4-(methylsulfonyl)cyclohexyl)methyl)-1-ethyl-1H-pyrazole-3-carboxamide]: in test [1], the equilibrium dissociation constant (Kd) came out at 26 nM. Further, the inhibition at 2 µM at full-length human RORγt (setting [2]) is 96%. At full-length human RORγt, the IC50 is 61 nM.

For `CCn1nc(C(=O)NC[C@H]2CC[C@H](S(N)(=O)=O)CC2)c(Cl)c1-c1ccc(C[C@H](C)C(F)(F)F)cc1OC(F)F` (single isomer, unassigned) [Example 54, 4-Chloro-5-(2-(difluoromethoxy)-4-((S*)-3,3,3-trifluoro-2-methylpropyl)phenyl)-1-ethyl-N-(((1r,4S)-4-sulfamoylcyclohexyl)methyl)-1H-pyrazole-3-carboxamide], in test [1], the Kd turned out to be 0.69 nM. For the same compound, the inhibition at […] on full-length human RORγt (setting [2]) amounted to 102%. Besides, the IC50 against full-length human RORγt came out at 9.8 nM.
